Source: patent publication US20210330606A1, “GLUCOSE CONSUMPTION ACCELERATOR AND GLYCOLYSIS ACCELERATOR” (SHINKO SANGYO Co., Ltd., priority 2018, published 2021)

How the values were obtained:
[1] = tested on: Rat-derived fibroblasts (Py-3Y1-S2, subculture strain); assay: Glucose consumption of rat-derived fibroblasts (relative value, control = 100); type: cell-based
Text: As drugs, 2-amino-1-cyclohexylethanol (Matrix Biochemicals), 2-aminoethanol (Tokyo Chemical Industry Co., Ltd.), 1-amino-2-propanol (Wako Pure Chemical Industries, Ltd.), 2-amino-1-phenylethanol (Tokyo Chemical Industry Co., Ltd.), 1, 3-bis[tris(hydroxymethyl)-methylamino]propane (Tokyo Chemical Industry Co., Ltd.), N-cyclohexylethanolamine (Tokyo Chemical Industry Co., Ltd.), diethanolamine (Wako Pure Chemical Industries, Ltd.), diethylamine (Wako Pure Chemical Industries, Ltd.), dipropylamine (Tokyo Chemical Industry Co., Ltd.), HEPES sodium salt (MP Biomedicals), metoprolol tartrate (Tokyo Chemical Industry Co., Ltd.), morpholine (Wako Pure Chemical Co., Ltd.), octopamine (MP Biomedicals), propylamine (Tokyo Chemical Industry Co., Ltd.), triethylamine (Wako Pure Chemical Co., Ltd.), timolol maleate (Wako Pure Chemical Industries, Ltd.) and tris(hydroxymethyl)aminomethane (Wako Pure Chemical Industries, Ltd.) were used. Each drug was dissolved in distilled water to prepare a sample.
In the culture, DMEM (Nissui Pharmaceutical Co., Ltd.) was used as a culture medium. […] As a control of the drug, the culture was performed in the same manner except that distilled water to which the drug was not added was added to the culture solution instead of the sample.
After the addition of the drug, the glucose concentration of each of the culture solutions was measured immediately after the start of the culture and after the completion of the culture. The glucose concentration was measured using a glucose assay kit (Waco). Then, the glucose concentration after the completion of the culture was divided by the glucose concentration immediately after the start of the culture (5.6 mmol per liter) to calculate the glucose consumption.
The fibroblasts were cultured. […] Streptozotocin, alloxan, and nicotinamide are drugs all known to produce symptoms of diabetes when administered to the body.
Next, samples of streptozotocin, alloxan, and nicotinamide plus 2-amino-1-phenylethanol (2-A-1-P) were prepared in the same manner. The concentration of 2-A-1-P was 1 mg/ml. The relative value of the glucose consumption was calculated in the same manner.
The fibroblasts were cultured.
The concentration of 2-A-1-P was 0.5 mg/ml. The relative value of the glucose consumption was calculated in the same manner.

[2] = tested on: Py-3Y1-S2, TE-13, VERO and HepG2 cells; assay: Lactate concentration after 24 to 48 hours culture, mean over four cell types (Example 8); type: cell-based, rat, human, African green monkey; settings: drug 0.5 mg/ml, mean of five experiments in four cell types
Protocol: (§1) After the addition of the drug, the culture solution was diluted so that the weight ratio of the culture solution to distilled water was 1:19, and the lactate concentration of the diluted culture solution was measured. The lactate concentration was measured using a lactate assay kit (product name: Lactate Assay Kit-WST, product of Dojindo Laboratories).
First, a sample of 2-amino-1-cyclohexylethanol (2-amino-1-cyclohexyl EOH) was prepared in the same manner as in Example 1. In addition to the rat-derived fibroblasts (Py-3Y1-S2, subculture line), human-derived esophageal cancer cells (TE-13, subculture line), African green monkey-derived kidney epithelial cells (VERO, subculture line), and human-derived hepatocellular cancer cells (HepG2, subculture line) were used and cultured under the same conditions as in Example 1. […] Thereafter, the culture solutions were further cultured for 24 to 48 hours. The culture time after the addition of the sample was set to the same condition for each cell. As a control 1, the culture was performed in the same manner except that distilled water to which the drug was not added was added to the culture solution instead of the sample. […] Then, the lactate concentration in each sample was measured in the same manner as in Example 6. […]

[3] = tested on: Py-3Y1-S2, TE-13, VERO and HepG2 cells; assay: Lactate concentration after 2 to 3 days culture, lactate metabolism, mean over four cell types (Example 9); type: cell-based, rat, human, African green monkey
Protocol: as §1
First, samples of 2-amino-1-cyclohexylethanol (2-amino-1-cyclohexyl EOH) and 2-amino-1-phenylethanol (2-amino-1-phenyl EOH) were prepared in the same manner as in Example 1. Four types of cells were used as in Example 8, and each of the cells was cultured under the same conditions as in Example 1. […] Thereafter, the culture time was lengthened to 2 to 3 days (48 to 72 hours) compared to Example 8. As a control 1, the culture was performed in the same manner except that distilled water to which the drug was not added was added to the culture solution instead of the sample. As a control 2, the culture was performed in the same manner as the […] except that a sample of biguanide prepared in the same manner as in Example 1 was added to the culture solution instead of the sample. Then, the lactate concentration in each sample was measured in the same manner as in Example 6. Each of the four cells was used for a total of four experiments.

[4] = tested on: rat-derived liver cancer cells (Ry121B, subculture line); assay: Lactate concentration in culture solution of liver cancer cells (relative value, control = 100); type: cell-based; settings: drug 1 mg/ml, control = 100 (FIG. 7B)
Protocol: (§2) First, samples of 2-amino-1-cyclohexylethanol and 2-amino-1-phenylethanol were prepared in the same manner as in Example 1. The fibroblasts and the liver cancer cells were cultured under the same conditions as in Examples 1 and 5. […] As a control, the culture was performed in the same manner except that distilled water to which the drug was not added was added to the culture solution instead of the sample.
as §1

[5] = tested on: rat-derived liver cancer cells (Ry121B, subculture line); settings: drug 1 mg/ml, control = 100
[6] = tested on: Rat-derived fibroblasts (Py-3Y1-S2, subculture strain); assay: Lactate concentration in culture solution of fibroblasts (relative value, control = 100); type: cell-based; settings: drug 1 mg/ml, control = 100 (FIG. 7A)
Protocol: as §2, §1

[7] = fibroblasts, drug 0.5 mg/ml, 12 to 24 hours, control = 100 (FIG. 1A, 2A)
[8] = fibroblasts, drug 1 mg/ml, 12 to 24 hours, control = 100 (FIG. 1B, 2B)
[9] = Example 3, fibroblasts, drug alone 1 mg/ml, control = 100

Row | Compound | relative value of glucose consumption [1, 7] | relative value of glucose consumption [1, 8] | further results
1 | CCCNCCC [dipropylamine] | significantly increased glucose consumption | significantly increased glucose consumption | –
2 | N=C(N)NC(=N)N [biguanide, reference compound] | – | – | lactate concentration in the culture solution [2]: increased the lactate concentration; lactate concentration relative to Control 1 ([3]; 2 to 3 days culture after addition of biguanide, P<0.05): about 3.5 times
3 | NCC(O)C1CCCCC1 (stereo not shown) [2-amino-1-cyclohexylethanol] | significantly increased glucose consumption | significantly increased glucose consumption | lactate concentration in the culture solution [2]: 9.35 mmol/L; lactate concentration in the culture solution compared to control 1 ([3]; drug 0.5 mg/ml, 2 to 3 days (48 to 72 hours) culture, mean of four experiments): equivalent to that of control 1; relative value of glucose consumption ([1]; Example 2, fibroblasts, drug 0.1 mg/ml, control = 100): about 120; relative value of glucose consumption ([1]; Example 2, fibroblasts, drug 0.25 mg/ml, control = 100): about 130; relative value of glucose consumption ([1]; Example 2, fibroblasts, drug 0.5 mg/ml, control = 100): about 150; relative value of lactate concentration [4]: about 140; relative value of glucose consumption [5]: about 145; relative value of lactate concentration [6]: about 145
4 | OCCNC1CCCCC1 [N-cyclohexylethanolamine] | significantly increased glucose consumption | significantly increased glucose consumption | –
5 | OCC(CO)(CO)NCCCNC(CO)(CO)CO [1,3-bis[tris(hydroxymethyl)methylamino]propane] | – | significantly increased glucose consumption | –
6 | CC(O)CN (stereo not shown) [1-amino-2-propanol] | significantly increased glucose consumption | – | –
7 | CCN(CC)CC [triethylamine] | significantly increased glucose consumption | significantly increased glucose consumption | –
8 | CC(C)(C)NC[C@H](O)COc1nsnc1N1CCOCC1.O=C(O)/C=C\C(=O)O [timolol maleate, reference compound] | significantly increased glucose consumption | significantly increased glucose consumption | –
9 | CCCN [propylamine] | significantly increased glucose consumption | significantly increased glucose consumption | –
10 | CCNCC [diethylamine] | significantly increased glucose consumption | significantly increased glucose consumption | –
11 | O=C1NC(=O)C(=O)C(=O)N1 [alloxan, reference compound] | – | – | relative value of glucose consumption [1, 9]: about 70
12 | COCCc1ccc(OCC(O)CNC(C)C)cc1.COCCc1ccc(OCC(O)CNC(C)C)cc1.O=C(O)C(O)C(O)C(=O)O (stereo not shown) [metoprolol tartrate, reference compound] | significantly increased glucose consumption | significantly increased glucose consumption | –
13 | OCCNCCO [diethanolamine] | significantly increased glucose consumption | significantly increased glucose consumption | –
14 | NCCO [2-aminoethanol] | significantly increased glucose consumption | significantly increased glucose consumption | –
15 | O=S(=O)([O-])CCN1CCN(CCO)CC1.[Na+] [HEPES sodium salt] | significantly increased glucose consumption | significantly increased glucose consumption | –
16 | concanavalin A [reference compound] | – | – | relative value of glucose consumption ([1]; Example 4, fibroblasts, ConA alone 100 μg/ml): about 120
17 | CN(N=O)C(=O)N[C@H]1C(O)O[C@H](CO)[C@@H](O)[C@@H]1O (mixture of isomers) [streptozotocin, reference compound] | – | – | relative value of glucose consumption [1, 9]: about 90
18 | tris(hydroxymethyl)aminomethane | significantly increased glucose consumption | significantly increased glucose consumption | –
19 | [O]=[V](=[O])[O][V](=[O])=[O] [V2O5, reference compound] | – | – | relative value of glucose consumption ([1]; Example 4, fibroblasts, drug alone, vanadium final concentration 1.0 mg/ml (V2O5 not printed separately)): about 115
20 | C1COCCN1 [morpholine] | significantly increased glucose consumption | significantly increased glucose consumption | –
21 | NC(=O)c1cccnc1 [nicotinamide, reference compound] | – | – | relative value of glucose consumption [1, 9]: about 85
